Results reported in PubChem BioAssay AID248 (DTP/NCI, 2004).
Inconclusive results and toxic doses are left out.

System: L1210 leukemia ip in BDF1 mice, survival T/C
Assay: NCI In Vivo Anticancer Drug Screen. Data for tumor model L1210 Leukemia (intraperitoneal) in B6D2F1 (BDF1) mice
Details: endpoint: mean survival time, higher = longer survival
In short: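 Value reflects the ratio of survival in compound-treated mice to survival in vehicle-treated controls, with both groups carrying the same transplanted tumor.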

[1] = dose: 50.0 mg/kg/injection, schedule: Q01DX001 (ip), vehicle: carboxymethylcellulose (CMC)
[2] = dose: 100.0 mg/kg/injection, schedule: Q01DX001 (ip), vehicle: carboxymethylcellulose (CMC)
[3] = dose: 200.0 mg/kg/injection, schedule: Q01DX001 (ip), vehicle: carboxymethylcellulose (CMC)
[4] = dose: 400.0 mg/kg/injection, schedule: Q01DX001 (ip), vehicle: carboxymethylcellulose (CMC)
[5] = dose: 100.0 mg/kg/injection, schedule: Q04DX003 (ip), vehicle: Klucel (hydroxypropylcellulose) (HPC)
[6] = dose: 200.0 mg/kg/injection, schedule: Q04DX003 (ip), vehicle: Klucel (hydroxypropylcellulose) (HPC)
[7] = dose: 400.0 mg/kg/injection, schedule: Q04DX003 (ip), vehicle: Klucel (hydroxypropylcellulose) (HPC)
[8] = dose: 100.0 mg/kg/injection, schedule: Q04DX002 (ip), vehicle: Klucel (hydroxypropylcellulose) (HPC)
[9] = dose: 200.0 mg/kg/injection, schedule: Q04DX002 (ip), vehicle: Klucel (hydroxypropylcellulose) (HPC)
[10] = dose: 400.0 mg/kg/injection, schedule: Q04DX002 (ip), vehicle: Klucel (hydroxypropylcellulose) (HPC)

With COC(=O)c1cccc(OC)c1 the T/C [1] was 102 % of control, the T/C [2] was 98 % of control and the T/C [3] was 104 % of control. The T/C [4] was 93 % of control.

With Cn1cnc2[nH]c(Cl)nc(=S)c21 the T/C (dose: 100.0 mg/kg/injection, schedule: Q01DX001 (ip), vehicle: saline) was 95 % of control, the T/C (dose: 200.0 mg/kg/injection, schedule: Q01DX001 (ip), vehicle: saline) was 92 % of control and the T/C (dose: 400.0 mg/kg/injection, schedule: Q01DX001 (ip), vehicle: saline) was 95 % of control.

With CCCCCCCCCCC1CCC(CCCCCCCCCC)CC1 (stereo not given) the T/C (dose: 100.0 mg/kg/injection, schedule: Q01DX001 (ip), vehicle: other) was 106 % of control, the T/C (dose: 200.0 mg/kg/injection, schedule: Q01DX001 (ip), vehicle: other) was 107 % of control and the T/C (dose: 400.0 mg/kg/injection, schedule: Q01DX001 (ip), vehicle: other) was 91 % of control.

With O=C(/C=C\c1ccc(/C=C/C(=O)Nc2cccc(C3=NCCCN3)c2)cc1)Nc1cccc(C2=NCCCN2)c1 the T/C (dose: 0.62 mg/kg/injection, schedule: Q01DX Z (ip), vehicle: carboxymethylcellulose (CMC)) was 117 % of control, the T/C (dose: 5.0 mg/kg/injection, schedule: Q01DX Z (ip), vehicle: carboxymethylcellulose (CMC)) was 225 % of control and the T/C (dose: 12.5 mg/kg/injection, schedule: Q01DX Z (oral), vehicle: carboxymethylcellulose (CMC)) was 103 % of control. For the same molecule, the T/C (dose: 25.0 mg/kg/injection, schedule: Q01DX Z (oral), vehicle: carboxymethylcellulose (CMC)) was 103 % of control, the T/C (dose: 50.0 mg/kg/injection, schedule: Q01DX Z (oral), vehicle: carboxymethylcellulose (CMC)) was 102 % of control and the T/C (dose: 100.0 mg/kg/injection, schedule: Q01DX Z (oral), vehicle: carboxymethylcellulose (CMC)) was 97 % of control.

In the case of Cc1ccc2ccccc2c1NCCC(=O)O, the T/C (dose: 100.0 mg/kg/injection, schedule: Q01DX001 (ip), vehicle: Klucel (hydroxypropylcellulose) (HPC)) is reported as 101 % of control, the T/C [5] is reported as 104 % of control and the T/C (dose: 200.0 mg/kg/injection, schedule: Q01DX001 (ip), vehicle: Klucel (hydroxypropylcellulose) (HPC)) is reported as 100 % of control. The T/C [6] was 98 % of control, the T/C (dose: 400.0 mg/kg/injection, schedule: Q01DX001 (ip), vehicle: Klucel (hydroxypropylcellulose) (HPC)) was 91 % of control and the T/C [7] was 102 % of control.

For C=C1C=C(C)N(C(=O)c2ccccc2Br)CCN1C(=O)c1ccccc1Br, the T/C [5] was 96 % of control, the T/C [6] was 105 % of control and the T/C [7] was 100 % of control.

In the case of C[n+]1ccccc1/C=C/c1cccc([N+](=O)[O-])c1, the T/C (dose: 5.0 mg/kg/injection, schedule: Q04DX003 (ip), vehicle: saline with Tween-80) is reported as 101 % of control, the T/C (dose: 10.0 mg/kg/injection, schedule: Q04DX003 (ip), vehicle: saline with Tween-80) is reported as 90 % of control and the T/C (dose: 20.0 mg/kg/injection, schedule: Q04DX003 (ip), vehicle: saline with Tween-80) is reported as 100 % of control.

O=S(=O)(OCC1CO1)c1ccc(N=Nc2ccccc2)cc1 (stereo not given) was tested, and the T/C (dose: 100.0 mg/kg/injection, schedule: Q01DX008 (ip), vehicle: Klucel (hydroxypropylcellulose) (HPC)) was 98 % of control, the T/C (dose: 200.0 mg/kg/injection, schedule: Q01DX008 (ip), vehicle: Klucel (hydroxypropylcellulose) (HPC)) was 90 % of control and the T/C (dose: 400.0 mg/kg/injection, schedule: Q01DX008 (ip), vehicle: Klucel (hydroxypropylcellulose) (HPC)) was 96 % of control.

In the case of Cc1cccc(NC(=O)N2CCN(c3ccccc3)CC2)c1, the T/C [1] is reported as 106 % of control, the T/C [2] is reported as 101 % of control and the T/C [3] is reported as 101 % of control. For the same molecule, the T/C [4] was 104 % of control.

For COc1cccc(CCCC(=O)O)c1OC, the T/C (dose: 100.0 mg/kg/injection, schedule: Q04DX003 (ip), vehicle: gum acacia) was 99 % of control, the T/C (dose: 200.0 mg/kg/injection, schedule: Q04DX003 (ip), vehicle: gum acacia) was 94 % of control and the T/C (dose: 400.0 mg/kg/injection, schedule: Q04DX003 (ip), vehicle: gum acacia) was 96 % of control.

For Oc1[nH]c(=S)sc1/C=C1\C=Nc2ccccc21, the T/C [1] was 90 % of control, the T/C [2] was 92 % of control and the T/C [3] was 90 % of control. The T/C [4] was 90 % of control.

For O=C(O)COc1ccc(C(=O)O)cc1, the T/C [8] was 111 % of control, the T/C [9] was 97 % of control and the T/C [10] was 101 % of control.

With CCOC(=O)C(NC(N)=O)C(=O)OCC the T/C (dose: 100.0 mg/kg/injection, schedule: Q01DX009 (ip), vehicle: Klucel (hydroxypropylcellulose) (HPC)) was 95 % of control, the T/C [5] was 95 % of control and the T/C (dose: 200.0 mg/kg/injection, schedule: Q01DX009 (ip), vehicle: Klucel (hydroxypropylcellulose) (HPC)) was 101 % of control. For the same molecule, the T/C [6] was 97 % of control, the T/C (dose: 400.0 mg/kg/injection, schedule: Q01DX009 (ip), vehicle: Klucel (hydroxypropylcellulose) (HPC)) was 101 % of control and the T/C [7] was 104 % of control.

For O=C1OC(c2cccc(Cl)c2)=N/C1=C\c1cc(Br)cc(Br)c1O, the T/C [8] was 92 % of control, the T/C [9] was 100 % of control and the T/C [10] was 89 % of control.

COC(=O)C(C)CSCc1ccccc1 (stereo not given) was tested, and the T/C (dose: 100.0 mg/kg/injection, schedule: Q04DX002 (ip), vehicle: saline) was 108 % of control and the T/C (dose: 400.0 mg/kg/injection, schedule: Q04DX002 (ip), vehicle: saline) was 89 % of control.

COc1ccc2nc3cc(Cl)ccc3c(NCC3(c4ccccc4)CCN(C)CC3)c2c1 was tested, and the T/C (dose: 12.5 mg/kg/injection, schedule: Q04DX003 (ip), vehicle: saline) was 97 % of control and the T/C (dose: 25.0 mg/kg/injection, schedule: Q04DX003 (ip), vehicle: saline) was 90 % of control.

For CC(C)Cc1ccc(C[N+]23CN4CN(CN(C4)C2)C3)cc1, the T/C (dose: 75.0 mg/kg/injection, schedule: Q01DX001 (ip), vehicle: saline) was 100 % of control, the T/C (dose: 150.0 mg/kg/injection, schedule: Q01DX001 (ip), vehicle: saline) was 96 % of control and the T/C (dose: 300.0 mg/kg/injection, schedule: Q01DX001 (ip), vehicle: saline) was 102 % of control.

For COc1cc(C=O)cc(C=O)c1O, the T/C (dose: 25.0 mg/kg/injection, schedule: Q01DX001 (ip), vehicle: saline with Tween-80) was 96 % of control, the T/C (dose: 50.0 mg/kg/injection, schedule: Q01DX001 (ip), vehicle: saline with Tween-80) was 104 % of control and the T/C (dose: 100.0 mg/kg/injection, schedule: Q01DX001 (ip), vehicle: saline with Tween-80) was 90 % of control.

For CNC(=S)N/N=C(/C)CCc1c(C)nn(C(=S)NC)c1C, the T/C (dose: 5.0 mg/kg/injection, schedule: Q01DX001 (ip), vehicle: carboxymethylcellulose (CMC)) was 94 % of control, the T/C (dose: 10.0 mg/kg/injection, schedule: Q01DX001 (ip), vehicle: carboxymethylcellulose (CMC)) was 91 % of control and the T/C (dose: 12.5 mg/kg/injection, schedule: Q01DX009 (ip), vehicle: Klucel (hydroxypropylcellulose) (HPC)) was 103 % of control. For the same molecule, the T/C (dose: 20.0 mg/kg/injection, schedule: Q01DX001 (ip), vehicle: carboxymethylcellulose (CMC)) was 89 % of control, the T/C (dose: 25.0 mg/kg/injection, schedule: Q01DX009 (ip), vehicle: Klucel (hydroxypropylcellulose) (HPC)) was 100 % of control and the T/C (dose: 25.0 mg/kg/injection, schedule: Q04DX003 (ip), vehicle: Klucel (hydroxypropylcellulose) (HPC)) was 106 % of control. The T/C (dose: 40.0 mg/kg/injection, schedule: Q01DX001 (ip), vehicle: carboxymethylcellulose (CMC)) was 89 % of control, the T/C (dose: 50.0 mg/kg/injection, schedule: Q01DX009 (ip), vehicle: Klucel (hydroxypropylcellulose) (HPC)) was 92 % of control and the T/C (dose: 50.0 mg/kg/injection, schedule: Q04DX003 (ip), vehicle: Klucel (hydroxypropylcellulose) (HPC)) was 100 % of control. For the same molecule, the T/C (dose: 80.0 mg/kg/injection, schedule: Q01DX001 (ip), vehicle: carboxymethylcellulose (CMC)) was 96 % of control and the T/C [5] was 92 % of control.

Nc1nc(=O)n(CC(=O)c2ccco2)cc1F was tested, and the T/C (dose: 100.0 mg/kg/injection, schedule: Q01DX009 (ip), vehicle: saline) was 100 % of control, the T/C (dose: 100.0 mg/kg/injection, schedule: Q04DX003 (ip), vehicle: saline) was 95 % of control and the T/C (dose: 200.0 mg/kg/injection, schedule: Q01DX009 (ip), vehicle: saline) was 94 % of control. For the same molecule, the T/C (dose: 200.0 mg/kg/injection, schedule: Q04DX003 (ip), vehicle: saline) was 97 % of control and the T/C (dose: 400.0 mg/kg/injection, schedule: Q04DX003 (ip), vehicle: saline) was 93 % of control.

COC(=O)C1CC[N-]CC1.COC(=O)C1CC[N-]CC1.[Cl][Pt+2][Cl] was tested, and the T/C (dose: 100.0 mg/kg/injection, schedule: Q04DX003 (ip), vehicle: saline with Tween-80) was 106 % of control, the T/C (dose: 200.0 mg/kg/injection, schedule: Q04DX003 (ip), vehicle: saline with Tween-80) was 106 % of control and the T/C (dose: 400.0 mg/kg/injection, schedule: Q04DX003 (ip), vehicle: saline with Tween-80) was 106 % of control.

OC(CCN1CCOCC1)c1cc2ccccc2o1 (stereo not given) was tested, and the T/C (dose: 75.0 mg/kg/injection, schedule: Q04DX003 (ip), vehicle: saline with Tween-80) was 102 % of control and the T/C (dose: 150.0 mg/kg/injection, schedule: Q04DX003 (ip), vehicle: saline with Tween-80) was 100 % of control.
